In patent publication US5210027A, “DNA encoding novel antimicrobial polypeptide and methods for obtaining such polypeptide” (INCYTE Pharmaceuticals, Inc., priority 1991, dated 1993):

Tests used:
Format in all cases: cell-based
[1] = tested on: Streptococcus faecalis (ATCC Accession No. 29212); assay: Microbicidal assay (colony forming units) against Streptococcus faecalis
Method: (§1) Microbicidal activity was routinely tested against Escherichia coli K12 (MC4100), Streptococcus faecalis (ATCC Accession No. 29212) and Candida albicans (clinical isolate). Organisms from a single colony on agar plates were inoculated into liquid medium and cultured overnight at 37° C. Aliquots of the overnight culture were inoculated into fresh nutrient broth and grown to mid-exponential phase. Cultures were then diluted into the test medium to the appropriate concentration.
(§2) Samples from reverse-phase liquid chromatography to be tested for microbicidal activity were dried by vacuum centrifugation in Immulon I microtire plates in the presence of 50 μl 0.1% BSA. Dried samples were resuspended in 0.1% acetic acid and returned to dryness by vacuum centrifugation. Samples were then resuspended in assay buffer and after appropriate dilutions of samples had been made, test organisms were added to the wells and incubation at 37° C. was carried out for 30 to 60 minutes. Killing of all organisms was carried out in 20 mM phosphate pH 6, 0.25M glucose and 0.02% Tween 20 unless otherwise indicated. A volume of the assay mixture corresponding to 200-300 organisms in the control assays were plated onto trypticase soy agar plates (Escherichia coli and Streptococcus faecalis) or spread onto Sabouraud dextrose agar plates (Candida albicans). Colony forming units were determined manually or by automated counting after overnight incubation at 37° C.

[2] = tested on: Candida albicans (clinical isolate); assay: Microbicidal assay (colony forming units) against Candida albicans; details: in vitro
Method: as §1
as §2, with “A volume of the assay mixture corresponding to 200-300 organisms in the control assays were plated onto trypticase soy agar plates (Escherichia coli and Streptococcus faecalis) or spread onto Sabouraud dextrose agar plates (Candida albicans).” left out

[3] = tested on: Escherichia coli K12 (MC4100); assay: Microbicidal assay (colony forming units) against Escherichia coli
Method: as §1, §2

[4] = in vitro, 20 mM phosphate pH 6, 0.25M glucose, 0.02% Tween 20, 37° C., 30 to 60 minutes, relative to Peak 1 (defensins)

With “val-cys-ser-cys-arg-leu-val-phe-cys-arg-arg-thr-glu-leu-arg-val-gly-asn-cys-leu-ile-gly-gly-val-ser-phe-thr-tyr-cys-cys-thr-arg-val [Peak 2]” the “effect of detergents Tween 20 and NP40 on microbicidal activity” value ([1]; against bacteria, FIG. 7) was “enhanced”, the “microbicidal activity compared with a mixture of previously described defensins” value ([1]; in vitro) was “significantly more active” and the “concentration required to reach the indicated levels of killing (50% or 90%), fold less than for Peak 1” value [1, 4] was “about 100 fold”. For the same substance, the “microbicidal activity compared with a mixture of previously described defensins” value [2] was “significantly more active”, the “microbicidal activity, fold more active than Peak 1” value ([2]; 20 mM phosphate pH 6, 0.25M glucose, 0.02% Tween 20, 37° C., 30 to 60 minutes, relative to Peak 1 (defensins)) was “about 5 fold” and the “effect of detergents Tween 20 and NP40 on microbicidal activity” value ([3]; against bacteria, FIG. 7) was “enhanced”. For the same substance, the “microbicidal activity compared with a mixture of previously described defensins” value ([3]; in vitro) was “significantly more active” and the “microbicidal activity, fold more active than Peak 1” value [3, 4] was 15-30 fold.
